This is an account of results in patent EP0498830B1, “GLUTAMIC AND ASPARTIC ACID DERIVATIVES WITH ANTIGASTRIN ACTIVITY AND A METHOD FOR THEIR PREPARATION” (ROTTA RESEARCH LABORATORIUM S.P.A., priority 1989, dated 1991).

Like-named read-outs stand apart in the source and are kept apart here. Bounds are passed on as bounds.

Assay [1] deals with gastric acid secretion induced by pentagastrin. As to the kind of experiment: Antisecretive activity in anaesthetised rats, stimulant pentagastrin. The format is in vivo. Particulars: Rattus norvegicus, iv; pentagastrin 30 mcg/kg/h; I.V. bolus; anaesthetised rats; read-out: Antagonistic activity (ED50 mg/kg IV) towards gastric acid secretion induced by pentagastrin. As for the experimental part: The antisecretive activity was determined in rats with the use of male animals weighing about 200g, anaesthetised with urethane. Gastric secretion was stimulated with pentagastrin. K.S. Lai's method (Gut 5, (1964), 327-341) was used, with slight modifications.
After tracheotomy, oesophageal and duodenal cannulae were inserted. A tepid solution (37°C) of 0.25 mM NaOH was perfused through the stomach by means of a peristaltic pump at a constant flow rate of 1 ml/minute. After stabilisation for 20 minutes, the dose of the stimulant, indicated in Table 3, dissolved in a physiological solution, was perfused for 120 minutes at a rate of 0.95 ml/hour. After 60 minutes of perfusion (basic stimulation), the products under test were administered intravenously (I.V.) in boli whilst the perfusion of the stimulant continued for a further 60 minutes. The acid secretion was recorded continuously as a function of time.
The activity of the product was evaluated as the reduction in the secreted acidity after administration of the product as a percentage of the basic acidity measured during the first 60 minutes of collection during which only pentagastrin was present.
The antagonistic compounds tested were administered in different doses so that an ID50 (that is the dose (in mg/Kg I.V.) which can inhibit the effect of the pentagastrin by 50% could be calculated.
The results thus obtained are given in the following table in which the activities of the compounds are expressed as ID50s under the stimulus of pentagastrin at 30 mcg/Kg/h.

Assay [2] addresses T1, central gastrin receptors (Mus musculus, UniProt P56481).
T1 sequence (P56481 1-453): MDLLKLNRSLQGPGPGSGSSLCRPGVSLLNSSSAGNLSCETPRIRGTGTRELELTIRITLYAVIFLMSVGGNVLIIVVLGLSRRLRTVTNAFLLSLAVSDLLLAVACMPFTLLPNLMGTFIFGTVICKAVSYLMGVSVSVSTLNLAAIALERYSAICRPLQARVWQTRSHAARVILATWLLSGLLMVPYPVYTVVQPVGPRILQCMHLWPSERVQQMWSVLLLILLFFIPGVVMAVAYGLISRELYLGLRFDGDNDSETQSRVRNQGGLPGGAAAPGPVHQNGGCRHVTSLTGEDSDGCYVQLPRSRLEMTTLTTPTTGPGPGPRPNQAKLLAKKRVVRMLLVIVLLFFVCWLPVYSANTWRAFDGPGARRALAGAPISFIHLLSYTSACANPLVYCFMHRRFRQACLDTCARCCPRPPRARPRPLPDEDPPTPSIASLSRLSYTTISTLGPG
The assay is described as follows: Inhibition of binding of tritiated pentagastrin to mouse cerebral cortex membranes. As to conditions: displacement of pentagastrin tritiate; 40 minutes at 37°C. The arrangement: Mouse cortex tissue was homogenised cold in 20 volumes of tris buffer (pH 7.7); from tissue; host or cells: mouse cerebral cortex membranes; species or system mice. As for the experimental part: Cerebral cortex membranes were therefore used and pentagastrin tritiate was again used as the ligand.
Mouse cortex tissue was homogenised cold in 20 volumes of tris buffer (pH 7.7). After washing and centrifuging, the final pellet was resuspended in 20 volumes of binding buffer containing, inter alia, TRIS, BSA and bacitracin. 0.4 ml of the membrane thus obtained were then incubated with a radioactive tracer and with the compounds under test for 40 minutes at 37°C.
After the supernatant liquid had been removed by centrifuging, the radioactivity associated with the pellet was determined, again with a liquid scintillator. The specific binding is the difference between the binding in the absence and in the presence of 10⁻⁶M pentagastrin.
Again, this gives the IC50s of the compounds tested with the meaning as given above.

For assay [3], the target named is T2, gastrin receptor sites on the parietal cell membranes of the fundic mucosa of a guinea-pig stomach (Cavia porcellus, UniProt H0VZC5).
T2 sequence (H0VZC5 1-426): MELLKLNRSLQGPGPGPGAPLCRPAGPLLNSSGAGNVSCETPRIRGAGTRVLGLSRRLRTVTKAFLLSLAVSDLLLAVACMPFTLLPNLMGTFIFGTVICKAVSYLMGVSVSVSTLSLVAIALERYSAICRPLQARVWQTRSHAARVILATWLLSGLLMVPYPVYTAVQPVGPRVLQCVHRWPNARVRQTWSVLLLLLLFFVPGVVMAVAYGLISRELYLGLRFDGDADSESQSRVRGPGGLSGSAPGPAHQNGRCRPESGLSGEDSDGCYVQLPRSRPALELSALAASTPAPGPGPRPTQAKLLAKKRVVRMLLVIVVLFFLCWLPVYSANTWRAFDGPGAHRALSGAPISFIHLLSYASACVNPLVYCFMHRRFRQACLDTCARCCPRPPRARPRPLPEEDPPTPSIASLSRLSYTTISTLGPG
The assay is described as follows: Inhibition of binding of tritiated pentagastrin to isolated guinea-pig gastric glands. The arrangement: from tissue; host or cells: isolated gastric glands from guinea-pig fundic mucosa (collagenase digestion). The method, then: The capacity of some of the compounds which are the subject of the invention to inhibit the binding of pentagastrin-[beta-alanyl-3-3H(N)] to the gastrin receptor sites on the parietal cell membranes of the fundic mucosa of a guinea-pig stomach was evaluated by comparison with the displacement of pentagastrin induced by proglumide, which is a reference antigastrin compound, by lorglumide, which is a powerful CCK antagonist mentioned above, and by the compound D5 which is the optical antipode (the L-series enantiomer) of the compound D1.
Male guinea pigs weighing about 400-500g were used. After the guinea pig had been killed, its stomach was removed and placed in oxygenated SPB buffer at 37°C (SPB = saline phosphate buffer: 149.6 mM NaCl, 3 mM K₂HPO₄, 0.64 mM NaH₂PO₄, pH 7.3).
After washing in the buffer, the stomach was placed on a petri dish and the antral part discarded.
The mucosa of the remaining part was removed from the underlying muscular part and was then chopped and transferred to a flask containing a collagenase digestion solution, 0.1% BSA and 0.2% glucose. The solution was incubated at 37°C for 10 minutes under agitation and a stream of 0₂.
During the incubation period, the tissue was passed several times through a series of pipettes with decreasing diameters in order to facilitate its digestion. At the end of the period, the tissue was removed and centrifuged at 1000 rpm. The supernatant liquid resulting from the centrifuging was discarded and the pellet washed several times with a washing buffer containing EPTA to remove the collagenase.
The glands were then isolated from the undigested tissue by conventional techniques, suspended in Hepes buffer for binding and incubated together with a radioactive tracer and the compounds under test for 30 minutes at 25°C.
After the supernatant liquid had been removed by centrifuging, the radioactivity associated with the pellet was determined with a liquid scintillator. The specific binding was determined as the difference between the binding in the absence and in the presence of 10⁻⁶ M pentagastrin.
The results obtained are shown in Table 1 which gives the IC50, that is, the concentration (in moles/litre) of the antagonist which can displace 50% of the pentagastrin tritiate from the receptor.

Setting [4] is: displacement of 50% of pentagastrin tritiate, 30 minutes at 25°C, read-out: IC50.

By IC50 is commonly meant the concentration at which inhibition is half-maximal. Turning to `CCC(CC)(CC)CCNC(=O)C(CCC(=O)O)NC(=O)c1cccc(Cl)c1` (racemic) [A14], the ED50 in assay [1] was 39 mg/kg. Further, the IC50 was 93 nM in assay [2] and 78 nM in assay [3] (setting [4]).

As to `CCCCCCNC(=O)C(CCC(=O)O)NC(=O)c1cccc(Cl)c1` (racemic) [A3], the ED50 in assay [1] was 54 mg/kg. In addition, the IC50 in assay [2] came out at 7500 nM; in assay [3] (setting [4]), 4800 nM.

`O=C(O)CC[C@@H](NC(=O)c1cccc(Cl)c1)C(=O)NC1CCCCCC1` [D4]: in assay [1], the ED50 was 64 mg/kg. In assay [3] (setting [4]), the IC50 turned out to be 2300 nM.

`CCC(CC)CCNC(=O)C(CCC(=O)O)NC(=O)c1cccc(Cl)c1` (racemic) [A11]: in assay [1], the ED50 amounted to 53 mg/kg. The IC50 in assay [3] (setting [4]) was determined as 650 nM.

As to `CCCN(CCC)C(=O)C(CCC(=O)O)NC(=O)c1ccccc1` (centres unmarked) [Proglumide, reference compound], the ED50 in assay [1] turned out to be 500 mg/kg. The same molecule showed an IC50 in assay [2] of 220000 nM.

Consider `CCC(C)(CC)CCNC(=O)[C@@H](CCC(=O)O)NC(=O)c1cccc(Cl)c1` [D3], for which the ED50 in assay [1] was 30 mg/kg. Further, the IC50 in assay [3] (setting [4]) turned out to be 58 nM.

Take `CCC(C)(C)CCNC(=O)C(CCC(=O)O)NC(=O)c1cccc(Cl)c1` (racemic) [A10]: in assay [1], the ED50 was 37 mg/kg. For the same molecule, the IC50 in assay [2] was determined as 180 nM; in assay [3] (setting [4]), 230 nM.

Turning to `O=C(O)CC[C@H](NC(=O)c1cccc(Cl)c1)C(=O)NC1CCCCCC1` [D6, reference compound], the IC50 in assay [3] (setting [4]) is 67000 nM.

For `CC(C)(C)CCNC(=O)[C@H](CCC(=O)O)NC(=O)c1cccc(Cl)c1` [D5, reference compound], in assay [1], the ED50 worked out at 89 mg/kg. The IC50 in assay [2] came to 660 nM; in assay [3] (setting [4]) it was 520 nM. Moreover, in assay [3] (L-series vs D-series enantiomer, gastric glands), the “times less active than the corresponding compound D1” value is reported as “about 10 times”.

`CC(C)(C)CCCNC(=O)[C@@H](CCC(=O)O)NC(=O)c1cccc(Cl)c1` [D2]: in assay [1], the ED50 worked out at 34 mg/kg. In addition, the IC50 amounted to 59 nM in assay [2] and 34 nM in assay [3] (setting [4]).

Consider `CCC(C)(CC)CCNC(=O)C(CC(=O)O)NC(=O)c1cccc(C)c1` (racemic) [A26], for which the ED50 in assay [1] turned out to be 52 mg/kg. The IC50 in assay [3] (setting [4]) stood at 840 nM.

Take `CCCCCCCNC(=O)C(CCC(=O)O)NC(=O)c1cccc(Cl)c1` (racemic) [A8]: the ED50 in assay [1] was greater than 100 mg/kg. In addition, the IC50 in assay [2] was found to be 39000 nM; in assay [3] (setting [4]) it was 12000 nM.

With `CCC(C)(CC)CCNC(=O)C(CCC(=O)O)NC(=O)c1cc(C)cc(C)c1` (racemic) [A22], in assay [1], the ED50 was found to be 41 mg/kg. Further, the values for the IC50 in assay [2] and in assay [3] (setting [4]) were 2400 nM and 2900 nM, respectively.

As to `CCC(C)(CC)CCNC(=O)C(CCC(=O)O)NC(=O)c1cc(Cl)ccc1[N+](=O)[O-]` (racemic) [A23], the ED50 in assay [1] stood at 40 mg/kg. Further, the IC50 in assay [2] turned out to be 230 nM; in assay [3] (setting [4]), 66 nM.

Regarding `CC(C)CCCNC(=O)C(CCC(=O)O)NC(=O)c1cccc(Cl)c1` (racemic) [A4], the ED50 in assay [1] stood at 61 mg/kg. Moreover, the IC50 in assay [3] (setting [4]) worked out at 3300 nM.

Turning to `Cc1cccc(C(=O)NC(CCC(=O)O)C(=O)NC2CCCCC2)c1` (racemic) [A19], the ED50 in assay [1] came out at 98 mg/kg. Besides, the IC50 in assay [3] (setting [4]) was determined as 41000 nM.

Consider `O=C(O)CC(NC(=O)c1cccc(Cl)c1)C(=O)NC1CCCCCC1` (racemic) [A25], for which, in assay [1], the ED50 came out at 74 mg/kg. Further, in assay [3] (setting [4]), the concentration for half-maximal inhibition (IC50) amounted to 7300 nM.

For the molecule `CCCCCNC(=O)C(CCC(=O)O)NC(=O)c1cccc(C)c1` (racemic) [A17], the ED50 in assay [1] amounted to 65 mg/kg. Also, the IC50 worked out at 17000 nM in assay [2] and 4500 nM in assay [3] (setting [4]).

For `CC(C)(C)CCCNC(=O)C(CCC(=O)O)NC(=O)c1cccc(Cl)c1` (racemic) [A9], in assay [1], the ED50 amounted to 34 mg/kg. For the same molecule, the IC50 amounted to 220 nM in assay [2] and 200 nM in assay [3] (setting [4]).

Regarding `CC(C)(C)CCNC(=O)C(CCC(=O)O)NC(=O)c1cc(Cl)cc(Cl)c1` (racemic) [A21], the ED50 in assay [1] stood at 34 mg/kg. Besides, the IC50 in assay [2] amounted to 80 nM; in assay [3], 69 nM.

With `O=C(O)CCC(NC(=O)c1cccc(Cl)c1)C(=O)NC1CCCCCC1` (racemic) [A12], the ED50 in assay [1] came out at 58 mg/kg. For the same molecule, the IC50 in assay [2] is 6400 nM; in assay [3] (setting [4]), 3800 nM.

Regarding `CC(C)CCNC(=O)C(CCC(=O)O)NC(=O)c1cccc(Cl)c1` (racemic) [A2], the ED50 in assay [1] is 48 mg/kg. In addition, the half-inhibitory concentration (IC50) in assay [3] (setting [4]) turned out to be 3100 nM.

Consider `CCC(C)(CC)CCNC(=O)C(CC(=O)O)NC(=O)c1cccc(Cl)c1` (racemic) [A24], for which the ED50 in assay [1] came out at 42 mg/kg. Also, the IC50 in assay [2] stood at 290 nM; in assay [3] (setting [4]) it was 230 nM.

As to `CCC(C)CCNC(=O)C(CCC(=O)O)NC(=O)c1cccc(Cl)c1` (centres unmarked) [A6], the ED50 in assay [1] was found to be 55 mg/kg. Moreover, in assay [3] (setting [4]), the IC50 was found to be 4500 nM.

Regarding `CCCCCCNC(=O)C(CCC(=O)O)NC(=O)c1cccc(C)c1` (racemic) [A18], the ED50 in assay [1] came to 58 mg/kg. In addition, in assay [3] (setting [4]), the IC50 was determined as 5800 nM.

Take `CCC(C)(CCNC(=O)C(CCC(=O)O)NC(=O)c1cccc(Cl)c1)C(C)C` (centres unmarked) [A16]: the ED50 in assay [1] is 37 mg/kg. Moreover, in assay [3] (setting [4]), the IC50 was 290 nM.
